Source: US20240082341A1, “PEPTIDE FOR USE IN THE TREATMENT OR PREVENTION OF COVID-19” (Instytut Biochemii I Biofizyki Polskiej Akademii Nauk, priority 2020, published 2024)
Ends that are not written are not given here.

Target: RBD domain of the S1 subunit of viral S glycoprotein (Severe acute respiratory syndrome coronavirus 2, UniProt P0DTC2)
Test: Binding of the peptides to the RBD domain of viral S glycoprotein (microscale thermophoresis, MST)
Parameters: species or system SARS-CoV-2
Details: for binding strength compared with the native peptide (1d): RBD domain, comparison with peptide 1d

| Compound | binding strength compared with the native peptide (1d) | Kd (peptide-RBD complex, 25° C., cell unit μM, read-out: KD (nM) Tmeasurement 25° C.) [µM] |
| --- | --- | --- |
| NC(=O)C[C@H](NC(=O)CNC(=O)[C@H](Cc1ccc(O)cc1)NC(=O)[C@@H](N)CC(=O)O)C(=O)N[C@@H](Cc1c[nH]cn1)C(=O)N[C@@H](CCC(=O)O)C(=O)O [Peptide 2d, DYGNHE] | significantly higher |  |
| CSCC[C@H](N)C(=O)N[C@@H](Cc1ccc(O)cc1)C(=O)NCC(=O)N[C@@H](CC(N)=O)C(=O)N[C@@H](Cc1c[nH]cn1)C(=O)N[C@@H](CCC(=O)O)C(=O)O [Peptide J3.2, MYGNHE] | significantly higher |  |
| MYGNYE [Peptide J3.4, MYGNYE] |  | > 10 |
